Literature values as cited in US20230398069A1, “ETOPOSIDE TONIRIBATE FORMULATION” (CELLACT PHARMA GMBH, priority 2020, published 2023).

Details: API

In the case of `COc1cc([C@@H]2c3cc4c(cc3[C@@H](O[C@@H]3O[C@@H]5CO[C@@H](C)O[C@H]5[C@@H](O)[C@H]3O)[C@H]3COC(=O)[C@H]23)OCO4)cc(OC)c1OC(=O)OCC1COC(C)(C)O1` (some centres unmarked) [Etoposide toniribate], the solubility in water is listed as “poorly soluble in water” and the “stability at acidic and basic pH” value is listed as “unstable at acidic and basic pH”.
